Test results reported in US10017542B2, “Antimicrobial peptides and methods of use thereof” (priority 2015, dated 2018).
Where a SMILES comes first, the peptide text is derived from it. Where no end group is shown, it is not given here. [ ]: non-standard residue; d: D form. Orn = NCCC[C@H](N)C(=O)O

How the values were obtained:
[1] = system: Clostridium difficile; experiment: Killing of antibiotic resistant bacteria (FIG. 2); type: cell-based; conditions: 1 hour time point after addition, single cell format
[2] = system: Pseudomonas aeruginosa; experiment: Killing of antibiotic resistant bacteria (FIG. 2); conditions: 1 hour time point after addition, single cell format
[3] = system: B. thailandensis; conditions: concentration required to kill 50% of B. thailandensis; 10 mM phosphate buffer, 3 h, 37° C.
[4] = system: P. aeruginosa (G−) biofilm
Procedure: (§1) The Minimum Biofilm Eradication Concentration (MBEC) Assay was used. MBEC values provide estimates on the concentration of an antimicrobial product required to kill biofilm bacteria. The Calgary Biofilm Device (CBD) plate was used to effect biofilm formation on a lid containing 96 pegs. Bacterial cultures were grown and diluted in Tryptic Soy Broth (TSB) to approximately 1×10^7 CFU/mL before inoculation of the CBD plate, which was then incubated for 24 hr at 35° C. on a shaker at 125 rpm.
(§2) The peg lid containing biofilm was first rinsed in PBS to remove planktonic cells prior to treatment with 2-fold serial dilutions of test articles and control overnight at 35° C. The peg lid was rinsed in PBS twice before sonication in fresh media to disrupt biofilm adhered to the pegs. The plate was then incubated overnight to evaluate growth. Bacterial quantification was performed by measuring absorbance at 650 nm (A650). By definition, A650 reading of less than 0.1 indicates biofilm eradication.

[5] = system: Staphylococcus aureus; experiment: Killing of antibiotic resistant bacteria (FIG. 2); conditions: 1 hour time point after addition, single cell format
[6] = system: A. baumanii (G−) biofilm
Procedure: as §1, §2

[7] = system: S. epidermis (G+) biofilm
Procedure: as §1, §2

[8] = system: S. aureus MRSA (G+) biofilm
Procedure: as §1, §2

[9] = system: E. coli; conditions: 24 h
Procedure: (§3) Measurement of antimicrobial and anti-fungal activity was determined by a standard micrometer dilution method. Briefly, cells were grown overnight in media specified for each strain, and were diluted in the same media. Serial dilutions of the peptides were added to microtiter plates in a volume of 50 ul, followed by the addition of 50 ul of bacteria or fungi, 5×10^5 CFU/ml. Plates were incubated at 37 degrees for 24 hours and the Minimum Inhibitory Concentrations (MICs) were determined as the lowest peptide concentration that inhibited 50% of bacterial growth.

[10] = system: bacterial isolates of Table 7 (A. baumanii, E. coli, E. cloaca, Pseudomonas, Staphylococcus)
Procedure: (§4) Briefly, cells were grown overnight in media specified for each strain, and were diluted in the same media. Serial dilutions of the peptides were added to microtiter plates in a volume of 50 ul, followed by the addition of 50 ul of bacteria or fungi, 5×10^5 CFU/ml. Plates were incubated at 37 degrees for 24 hours and the Minimum Inhibitory Concentrations (MICs) were determined as the lowest peptide concentration that inhibited 50% of bacterial growth.

[11] = system: E. cloaca; conditions: 24 h
Procedure: as §3

[12] = system: fungal isolates of Table 8 (C. albicans, C. krusei, C. tropicalis)
Procedure: as §3

[13] = system: C. albicans; conditions: 24 h
Procedure: as §4

[14] = system: C. krusei; conditions: 24 h
Procedure: as §3

| Compound | killing of C. difficile [1] | killing of P. aeruginosa [2] | EC50 [3] [µM] | Average MBEC [4] [µM] | Average MBEC [6] [µM] | Average MBEC [7] [µM] | Average MBEC [8] [µM] | also measured |
| --- | --- | --- | --- | --- | --- | --- | --- | --- |
| FAFAFAFKKAFKKFKKAFKKAF [RP442] | effective in killing | effective in killing | 0.95 | 234.28 | 1.87 | 14.68 | 14.68 | killing of S. aureus [5]: effectively killed |
| C[C@H](NC(=O)[C@H](Cc1ccccc1)NC(=O)[C@H](C)NC(=O)[C@H](Cc1ccccc1)NC(=O)[C@H](CCCN)NC(=O)[C@H](C)NC(=O)[C@H](Cc1ccccc1)NC(=O)[C@H](CCCN)NC(=O)[C@H](CCCN)NC(=O)[C@H](C)NC(=O)[C@H](Cc1ccccc1)NC(=O)[C@H](CCCN)NC(=O)[C@H](CCCN)NC(=O)[C@H](Cc1ccccc1)NC(=O)[C@H](CCCN)NC(=O)[C@H](CCCN)NC(=O)[C@H](C)NC(=O)[C@H](Cc1ccccc1)NC(=O)[C@H](CCCN)NC(=O)[C@H](CCCN)NC(=O)[C@H](C)NC(=O)[C@@H](N)Cc1ccccc1)C(=O)N[C@@H](Cc1ccccc1)C(=O)O [RP444, FAOOFAOOFOOFAOOFAOFAFAF] (H-FA[Orn][Orn]FA[Orn][Orn]F[Orn][Orn]FA[Orn][Orn]FA[Orn]FAFAF-OH; N-terminus and C-terminus assumed) |  |  | 14.8 | 57.62 | 3.68 | 14.41 | 14.41 |  |
| C[C@H](NC(=O)[C@H](Cc1ccccc1)NC(=O)[C@H](C)NC(=O)[C@@H](N)Cc1ccccc1)C(=O)N[C@@H](Cc1ccccc1)C(=O)N[C@@H](CCCN)C(=O)N[C@@H](C)C(=O)N[C@@H](Cc1ccccc1)C(=O)N[C@@H](CCCN)C(=O)N[C@@H](CCCN)C(=O)N[C@@H](C)C(=O)N[C@@H](Cc1ccccc1)C(=O)N[C@@H](CCCN)C(=O)N[C@@H](CCCN)C(=O)N[C@@H](Cc1ccccc1)C(=O)N[C@@H](CCCN)C(=O)N[C@@H](CCCN)C(=O)N[C@@H](C)C(=O)N[C@@H](Cc1ccccc1)C(=O)N[C@@H](CCCN)C(=O)N[C@@H](CCCN)C(=O)N[C@@H](C)C(=O)N[C@@H](Cc1ccccc1)C(=O)O [RP443, FAFAFOAFOOAFOOFOOAFOOAF] (H-FAFAF[Orn]AF[Orn][Orn]AF[Orn][Orn]F[Orn][Orn]AF[Orn][Orn]AF-OH; N-terminus and C-terminus assumed) |  |  | 55.6 | 57.62 | 3.68 | 3.68 | 7.36 |  |
| CC[C@H](C)[C@H](NC(=O)[C@H](CCCNC(=N)N)NC(=O)[C@H](C)NC(=O)[C@H](CC(C)C)NC(=O)[C@H](CCCNC(=N)N)NC(=O)[C@@H](N)CS)C(=O)N[C@H](C(=O)N[C@@H](CS)C(=O)NCC(=O)NCC(=O)N[C@@H](Cc1ccccc1)C(=O)N[C@@H](C)C(=O)N[C@@H](CCCN)C(=O)N[C@@H](CCCN)C(=O)N[C@@H](Cc1ccccc1)C(=O)N[C@@H](C)C(=O)N[C@@H](CCCN)C(=O)N[C@@H](CCCN)C(=O)N[C@@H](Cc1ccccc1)C(=O)N[C@@H](CCCN)C(=O)N[C@@H](CCCN)C(=O)N[C@@H](Cc1ccccc1)C(=O)N[C@@H](C)C(=O)N[C@@H](CCCN)C(=O)N[C@@H](CCCN)C(=O)N[C@@H](Cc1ccccc1)C(=O)N[C@@H](C)C(=O)N[C@@H](CCCN)C(=O)N[C@@H](Cc1ccccc1)C(=O)N[C@@H](C)C(=O)N[C@@H](Cc1ccccc1)C(=O)N[C@@H](C)C(=O)N[C@@H](Cc1ccccc1)C(=O)O)C(C)C [RP501, CRLARIVCGGFAOOFAOOFOOFAOOFAOFAFAF] (H-CRLARIVCGGFA[Orn][Orn]FA[Orn][Orn]F[Orn][Orn]FA[Orn][Orn]FA[Orn]FAFAF-OH; N-terminus and C-terminus assumed) |  |  |  |  |  |  |  | IC50 [9]: 7.3 µM; IC50 [10]: 13.6 µM; IC50 [11]: 14.5 µM |
| CC[C@H](C)[C@H](NC(=O)CNC(=O)CNC(=O)[C@H](CS)NC(=O)[C@H](Cc1ccccc1)NC(=O)[C@H](CCCN)NC(=O)CNC(=O)[C@H](CC(C)C)NC(=O)[C@H](CS)NC(=O)CNC(=O)CNC(=O)[C@H](CC(C)C)NC(=O)[C@H](CCCN)NC(=O)[C@H](C)NC(=O)[C@H](CCCN)NC(=O)[C@@H](NC(=O)[C@H](CCCN)NC(=O)[C@@H](N)Cc1ccccc1)[C@@H](C)CC)C(=O)N[C@@H](CCCN)C(=O)N[C@@H](C)C(=O)N[C@@H](CCCN)C(=O)N[C@@H](CC(C)C)C(=O)N[C@@H](CCCN)C(=O)N[C@@H](Cc1ccccc1)C(=O)O [RP504, FOIOAOLGGCLGOFCGGIOAOLOF] (H-F[Orn]I[Orn]A[Orn]LGGCLG[Orn]FCGGI[Orn]A[Orn]L[Orn]F-OH; N-terminus and C-terminus assumed) |  |  |  |  |  |  |  | IC50 [12]: 23 µM; IC50 [13]: 43.3 µM; IC50 [9]: 10.8 µM; IC50 [14]: 2.7 µM; IC50 [10]: 17.6 µM |
| CN[C@H](CC(C)C)C(=O)N[C@H]1C(=O)N[C@@H](CC(N)=O)C(=O)N[C@H]2C(=O)N[C@H]3C(=O)N[C@H](C(=O)N[C@H](C(=O)O)c4cc(O)cc(O)c4-c4cc3ccc4O)[C@H](O)c3ccc(c(Cl)c3)Oc3cc2cc(c3O[C@@H]2O[C@H](CO)[C@@H](O)[C@H](O)[C@H]2O[C@H]2C[C@](C)(N)[C@H](O)[C@H](C)O2)Oc2ccc(cc2Cl)[C@H]1O [vancomycin, reference compound] | not effective | not effective |  |  |  |  |  |  |
| C[C@H](N)C(=O)N[C@@H](Cc1ccccc1)C(=O)N[C@@H](C)C(=O)N[C@@H](Cc1ccccc1)C(=O)N[C@H](C(=O)N[C@@H](C)C(=O)N[C@@H](CCCN)C(=O)N[C@@H](CCCN)C(=O)N[C@@H](CCCN)C(=O)N[C@@H](Cc1ccccc1)C(=O)N[C@@H](C)C(=O)N[C@@H](CCCN)C(=O)N[C@@H](Cc1ccccc1)C(=O)N[C@@H](CCCN)C(=O)N[C@@H](C)C(=O)N[C@@H](CCCN)C(=O)N[C@@H](Cc1ccccc1)C(=O)N[C@@H](C)C(=O)N[C@@H](CC(N)=O)C(=O)N[C@@H](Cc1ccccc1)C(=O)N[C@@H](C)C(=O)N[C@@H](Cc1ccccc1)C(=O)N[C@@H](C)C(=O)NCC(=O)N[C@@H](Cc1ccccc1)C(=O)N[C@@H](CC(N)=O)C(=O)N[C@@H](C)C(=O)O)[C@@H](C)O [RP508, AFAFTAOOOFAOFOAOFANFAFAGFNA] (H-AFAFTA[Orn][Orn][Orn]FA[Orn]F[Orn]A[Orn]FANFAFAGFNA-OH; N-terminus and C-terminus assumed) |  |  |  |  |  |  |  | IC50 [12]: 46 µM; IC50 [13]: 38.3 µM; IC50 [14]: 38.3 µM |
| CC[C@H](C)[C@H](NC(=O)[C@H](CS)NC(=O)[C@H](Cc1ccccc1)NC(=O)[C@H](CCCNC(=N)N)NC(=O)CNC(=O)[C@H](CC(C)C)NC(=O)[C@H](CS)NC(=O)[C@H](CC(C)C)NC(=O)[C@H](CCCCN)NC(=O)[C@H](C)NC(=O)[C@H](CCCNC(=N)N)NC(=O)[C@@H](NC(=O)[C@@H](N)CCCCN)[C@@H](C)CC)C(=O)N[C@@H](CCCNC(=N)N)C(=O)N[C@@H](C)C(=O)N[C@@H](CCCCN)C(=O)N[C@@H](CC(C)C)C(=O)N[C@@H](CCCNC(=N)N)C(=O)O [RP439, KIRAKLCLGRFCIRAKLR] (H-KIRAKLCLGRFCIRAKLR-OH) | effective in killing | effective in killing |  |  |  |  |  | killing of S. aureus [5]: effectively killed |
| CPGFAKKFAKKFKKFAKKFAKFAFAF [RP438] |  |  | 11.2 | 51.43 | 6.45 | 12.89 | 12.89 |  |
